Experimental data taken from patent US20200361895A1, “NOVEL SULFONAMIDE CARBOXAMIDE COMPOUNDS” (Inflazome Limited, priority 2017, published 2020).
Counter-ions that a name gives are not always drawn.

How the values were obtained:
[1] = target: T1, NLRP3 (Homo sapiens, UniProt Q96P20); assay: THP-1 cells pyroptosis assay (LPS + nigericin, resazurin readout; THP IC50); type: cell-based; set-up: Seed THP-1 cells (25,000 cells/well) containing 1.0 μg/ml LPS in 40 μl of RPMI medium; host or cells: THP-1 cells
T1 sequence (Q96P20 whole entry): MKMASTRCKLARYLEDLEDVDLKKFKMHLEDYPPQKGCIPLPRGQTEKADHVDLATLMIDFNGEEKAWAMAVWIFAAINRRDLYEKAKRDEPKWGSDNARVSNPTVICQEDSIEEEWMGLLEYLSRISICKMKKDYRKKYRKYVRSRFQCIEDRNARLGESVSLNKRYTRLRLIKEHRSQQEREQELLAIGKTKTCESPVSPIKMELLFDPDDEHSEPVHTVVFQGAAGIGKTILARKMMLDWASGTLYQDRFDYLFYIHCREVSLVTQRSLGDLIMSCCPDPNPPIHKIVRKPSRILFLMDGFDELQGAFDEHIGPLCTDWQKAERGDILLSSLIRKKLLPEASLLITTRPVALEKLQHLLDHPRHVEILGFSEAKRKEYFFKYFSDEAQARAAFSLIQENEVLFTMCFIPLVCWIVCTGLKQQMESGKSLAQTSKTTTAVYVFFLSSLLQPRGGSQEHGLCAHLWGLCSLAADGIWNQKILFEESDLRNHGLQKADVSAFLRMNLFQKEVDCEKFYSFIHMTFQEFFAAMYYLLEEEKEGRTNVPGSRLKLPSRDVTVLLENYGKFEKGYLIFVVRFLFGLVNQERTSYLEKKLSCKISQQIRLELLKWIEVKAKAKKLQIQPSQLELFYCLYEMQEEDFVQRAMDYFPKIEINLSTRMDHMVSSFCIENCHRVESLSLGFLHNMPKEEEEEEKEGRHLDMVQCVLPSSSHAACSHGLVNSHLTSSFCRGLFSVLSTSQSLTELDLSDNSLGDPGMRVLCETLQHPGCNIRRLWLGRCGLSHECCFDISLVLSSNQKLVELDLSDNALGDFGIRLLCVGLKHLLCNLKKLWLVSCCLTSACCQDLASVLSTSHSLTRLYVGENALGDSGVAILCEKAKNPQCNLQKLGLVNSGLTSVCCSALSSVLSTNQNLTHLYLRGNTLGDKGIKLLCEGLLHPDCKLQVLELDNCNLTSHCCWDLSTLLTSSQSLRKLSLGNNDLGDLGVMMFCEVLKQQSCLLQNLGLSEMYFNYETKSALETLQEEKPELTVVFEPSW
Outline: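 Human THP-1 cells, 25,000/well in serum-free RPMI with 1 μg/ml LPS, treated 3 hrs at 37° C with compound (8-point half-log, 10 μM top, 0.1% DMSO), then 5 μM nigericin 1 hr. Viability by 100 μM resazurin fluorescence after 1-2 hrs; IC50 by 4-parameter fit.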

[2] = target: T1, NLRP3; assay: Human whole blood IL1β release assay (LPS + nigericin, AlphaLisa IL-1β; HWB IC50); type: cell-based; set-up: Human whole blood in Li-heparin tubes was obtained from healthy donors from a volunteer donor panel; from tissue; host or cells: human whole blood from healthy donors; details: IL-1β release
Outline: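 Donor Li-heparin whole blood primed with 1 μg/ml LPS, given compound (8-point half-log series, 10 μM top; DMSO 0.1% final) for 3 h at 37 °C, then nigericin 10 μM final for 1 h. Supernatant IL-1β measured by AlphaLisa; IC50 from 4-parameter variable-slope fit.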

SMILES | IC50 [1] [nM] | IC50 [2] [nM]
CNc1cc(-c2ccc3c(c2NC(=O)NS(=O)(=O)c2ccn(C4CC4)n2)CCC3)ccn1 [Example 253, 1-Cyclopropyl-N-((5-(2-(methylamino)pyridin-4-yl)-2,3-dihydro-1H-inden-4-yl)carbamoyl)-1H-pyrazole-3-sulfonamide] | ≤ 1000 | ≤ 5000
CC(C)(C)n1ccc(S(=O)(=O)NC(=O)Nc2c(-c3ccnc(C#N)c3)ccc3c2CCC3)n1 [Example 264, 1-(tert-Butyl)-N-((5-(2-cyanopyridin-4-yl)-2,3-dihydro-1H-inden-4-yl)carbamoyl)-1H-pyrazole-3-sulfonamide, sodium salt] | ≤ 500 | ≤ 500
COc1cc(-c2ccc3c(c2NC(=O)NS(=O)(=O)c2ccn(C4CC4)n2)CCO3)c(F)cn1 [Example 265, 1-Cyclopropyl-N-((5-(5-fluoro-2-methoxypyridin-4-yl)-2,3-dihydrobenzofuran-4-yl)carbamoyl)-1H-pyrazole-3-sulfonamide, sodium salt] | ≤ 500 | ≤ 500
O=C(Nc1c(-c2ccnc(OC3CC3)c2)ccc2c1CCO2)NS(=O)(=O)c1ccn(C2CCC2)n1 [Example 266, 1-Cyclobutyl-N-((5-(2-cyclopropoxypyridin-4-yl)-2,3-dihydrobenzofuran-4-yl)carbamoyl)-1H-pyrazole-3-sulfonamide, sodium salt] | ≤ 500 | ≤ 1000
COc1cc(-c2ccc3c(c2NC(=O)NS(=O)(=O)c2ccn(CC4CC4)n2)CCO3)ccn1 [Example 267, 1-(Cyclopropylmethyl)-N-((5-(2-methoxypyridin-4-yl)-2,3-dihydrobenzofuran-4-yl)carbamoyl)-1H-pyrazole-3-sulfonamide, sodium salt] | ≤ 500 | ≤ 500
Cc1cc(-c2ccc3c(c2NC(=O)NS(=O)(=O)c2ccn(C4CCC4)n2)CCC3)ccn1 [Example 269, 1-Cyclobutyl-N-((5-(2-methylpyridin-4-yl)-2,3-dihydro-1H-inden-4-yl)carbamoyl)-1H-pyrazole-3-sulfonamide, sodium salt] | ≤ 500 | ≤ 500
Cc1cc(-c2ccc3c(c2NC(=O)NS(=O)(=O)c2ccn(C4CC4)n2)CCC3)ccn1 [Example 270, 1-Cyclopropyl-N-((5-(2-methylpyridin-4-yl)-2,3-dihydro-1H-inden-4-yl)carbamoyl)-1H-pyrazole-3-sulfonamide, sodium salt] | ≤ 500 | ≤ 500
N#Cc1cc(-c2ccc3c(c2NC(=O)NS(=O)(=O)c2ccn(CC4CC4)n2)CCC3)ccn1 [Example 271, N-((5-(2-Cyanopyridin-4-yl)-2,3-dihydro-1H-inden-4-yl)carbamoyl)-1-(cyclopropylmethyl)-1H-pyrazole-3-sulfonamide] | ≤ 500 | ≤ 500
CC(C)(CN1CCC1)n1ccc(S(=O)(=O)NC(=O)Nc2c(-c3ccnc(OC4CC4)c3)ccc3c2CCC3)n1 [Example 274, 1-(1-(Azetidin-1-yl)-2-methylpropan-2-yl)-N-((5-(2-cyclopropoxypyridin-4-yl)-2,3-dihydro-1H-inden-4-yl)carbamoyl)-1H-pyrazole-3-sulfonamide, sodium salt] | ≤ 500 | ≤ 500
O=C(Nc1c(-c2ccnc(OC(F)F)c2)ccc2c1CCO2)NS(=O)(=O)c1ccn(C2CCC2)n1 [Example 275, 1-Cyclobutyl-N-((5-(2-(difluoromethoxy)pyridin-4-yl)-2,3-dihydrobenzofuran-4-yl)carbamoyl)-1H-pyrazole-3-sulfonamide, sodium salt] | ≤ 500 | ≤ 500
O=C(Nc1c(-c2ccnc(OC3CC3)c2)ccc2c1CCO2)NS(=O)(=O)c1ccn(C2CC2)n1 [Example 276, N-((5-(2-Cyclopropoxypyridin-4-yl)-2,3-dihydrobenzofuran-4-yl)carbamoyl)-1-cyclopropyl-1H-pyrazole-3-sulfonamide, sodium salt] | ≤ 500 | ≤ 1000
O=C(Nc1c(-c2ccnc(OC(F)F)c2)ccc2c1CCO2)NS(=O)(=O)c1ccn(C2CC2)n1 [Example 277, 1-Cyclopropyl-N-((5-(2-(difluoromethoxy)pyridin-4-yl)-2,3-dihydrobenzofuran-4-yl)carbamoyl)-1H-pyrazole-3-sulfonamide, sodium salt] | ≤ 500 | ≤ 500
[2H]C([2H])([2H])Oc1cc(-c2ccc3c(c2NC(=O)NS(=O)(=O)c2ccn(C4CC4)n2)CCO3)ccn1 [Example 278, 1-Cyclopropyl-N-((5-(2-(methoxy-d3)pyridin-4-yl)-2,3-dihydrobenzofuran-4-yl)carbamoyl)-1H-pyrazole-3-sulfonamide, sodium salt] | ≤ 500 | ≤ 500

The remaining lines, values ahead:

IC50 [1] [nM] | IC50 [2] [nM] | SMILES
≤ 500 | ≤ 500 | COc1cc(-c2ccc3c(c2NC(=O)NS(=O)(=O)c2ccn(C4(CN(C)C)CCC4)n2)CCC3)ccn1 [Example 247, 1-(1-((Dimethylamino)methyl)cyclobutyl)-N-((5-(2-methoxypyridin-4-yl)-2,3-dihydro-1H-inden-4-yl)carbamoyl)-1H-pyrazole-3-sulfonamide, sodium salt]
≤ 500 | ≤ 500 | COc1cc(-c2ccc3c(c2NC(=O)NS(=O)(=O)c2ccn(C4CC4)n2)CCO3)ccn1 [Example 248, 1-Cyclopropyl-N-((5-(2-methoxypyridin-4-3-sulfonamide, sodium salt]
≤ 500 | ≤ 500 | COc1cc(-c2ccc3c(c2NC(=O)NS(=O)(=O)c2ccn(CCF)n2)CCC3)ccn1 [Example 249, 1-(2-Fluoroethyl)-N-((5-(2-methoxypyridin-4-yl)-2,3-dihydro-1H-inden-4-yl)carbamoyl)-1H-pyrazole-3-sulfonamide, sodium salt]
≤ 500 | ≤ 500 | COc1cc(-c2ccc3c(c2NC(=O)NS(=O)(=O)c2cnn(C(C)C)c2)CCC3)ccn1 [Example 250, 1-Isopropyl-N-((5-(2-methoxypyridin-4-yl)-2,3-dihydro-1H-inden-4-yl)carbamoyl)-1H-pyrazole-4-sulfonamide, sodium salt]
≤ 500 | ≤ 500 | COc1cc(-c2ccc3c(c2NC(=O)NS(=O)(=O)c2ccn(C(C)(C)C)n2)CCC3)ccn1 [Example 252, 1-(tert-Butyl)-N-((5-(2-methoxypyridin-4-yl)-2,3-dihydro-1H-inden-4-yl)carbamoyl)-1H-pyrazole-3-sulfonamide, sodium salt]
≤ 500 | ≤ 500 | COc1cc(-c2ccc3c(c2NC(=O)NS(=O)(=O)c2ccn(C4CC4)n2)CCC3)c(F)cn1 [Example 255, 1-Cyclopropyl-N-((5-(5-fluoro-2-methoxypyridin-4-yl)-2,3-dihydro-1H-inden-4-yl)carbamoyl)-1H-pyrazole-3-sulfonamide, sodium salt]
≤ 500 | ≤ 500 | COc1cc(-c2ccc3c(c2NC(=O)NS(=O)(=O)c2ccn(C4CCC4)n2)CCO3)ccn1 [Example 257, 1-Cyclobutyl-N-((5-(2-methoxypyridin-4-yl)-2,3-dihydrobenzofuran-4-yl)carbamoyl)-1H-pyrazole-3-sulfonamide, sodium salt]
≤ 500 | ≤ 500 | COc1cc(-c2ccc3c(c2NC(=O)NS(=O)(=O)c2ccn(C(C)(C)CN4CCC4)n2)CCO3)ccn1 [Example 258, 1-(1-(Azetidin-1-yl)-2-rnethylpropan-2-yl)-N-((5-(2-methoxypyridin-4-yl)-2,3-dihydrobenzofuran-4-yl)carbamoyl)-1H-pyrazole-3-sulfonamide, sodium salt]
≤ 500 | ≤ 500 | COc1cc(-c2ccc3c(c2NC(=O)NS(=O)(=O)c2ccn(C(C)(C)C)n2)CCO3)ccn1 [Example 259, 1-(tert-Butyl)-N-((5-(2-methoxypyridin-4-yl)-2,3-dihydrobenzofuran-4-yl)carbamoyl)-1H-pyrazole-3-sulfonamide, sodium salt]
≤ 500 | ≤ 5000 | CC(C)n1ncc(S(=O)(=O)NC(=O)Nc2c(-c3ccnc(C#N)c3)ccc3c2CCC3)n1 [Example 260, N-((5-(2-Cyanopyridin-4-yl)-2,3-dihydro-1H-inden-4-yl)carbamoyl)-2-isopropyl-2H-1,2,3-triazole-4-sulfonamide, sodium salt]
≤ 500 | ≤ 5000 | O=C(Nc1c(-c2ccnc(OC3CC3)c2)ccc2c1CCC2)NS(=O)(=O)c1ccn(C2CC2)n1 [Example 261, N-((5-(2-Cyclopropoxypyridin-4-yl)-2,3-dihydro-1H-inden-4-yl)carbamoyl)-1-cyclopropyl-1H-pyrazole-3-sulfonamide, sodium salt]
≤ 500 | ≤ 1000 | O=C(Nc1c(-c2ccnc(OC(F)F)c2)ccc2c1CCC2)NS(=O)(=O)c1ccn(C2CC2)n1 [Example 262, 1-Cyclopropyl-N-((5-(2-(difluoromethoxy)pyridin-4-yl)-2,3-dihydro-1H-inden-4-yl)carbamoyl)-1H-pyrazole-3-sulfonamide, sodium salt]
≤ 500 | ≤ 500 | COc1cc(-c2ccc3c(c2NC(=O)NS(=O)(=O)c2ccn(CC4CC4)n2)CCC3)ccn1 [Example 263, 1-(Cyclopropylmethyl)-N-((5-(2-methoxypyridin-4-yl)-2,3-dihydro-1H-inden-4-yl)carbamoyl)-1H-pyrazole-3-sulfonamide, sodium salt]
